In patent US11267822B2, “BET bromodomain protein degraders with cleavable linkers” (THE REGENTS OF THE UNIVERSITY OF MICHIGAN, priority 2017, dated 2022):
Several values for one entry are separate records, joined by “and”; a condition that tells them apart may be missing. Equal entries are not always repeated.

Key:
MOLM13 = assay: Cell growth inhibition, CellTiter-Glo Luminescent Cell Viability Assay, MOLM13; type: cell-based; conditions: MOLM13 cells, 4 days
Experimental: (§1) Cell growth inhibitory activity of representative Compounds of the Disclosure was determined using the CellTiter-Glo® Luminescent Cell Viability Assay. Cells were seeded in 384-well white opaque cell culture plates at a density of 2,000 cells/well with serially diluted compounds and incubated at 37° C. in an atmosphere of 95% air and 5% CO2 for 4 days. Cell viability was determined using the CellTiter-Glo® Luminescent Cell Viability Assay Kit (Promega, Madison, Wis.) according to the manufacture's instruction. Briefly, a volume of CellTiter-Glo® Reagent equal to the volume of cell culture medium was added to each well, and then the plates were incubated at room temperature for 10-20 minutes. The luminescent signal was measured using a Tecan Infinite M1000 multimode microplate reader (Tecan, Morrisville, N.C.). The half maximal inhibitory concentration (IC50) in Table 3 was calculated using the GraphPad Prism 5 software (GraphPad Software, La Jolla, Calif.).

MDA-MB-231 = assay: Cell growth inhibition, CellTiter-Glo Luminescent Cell Viability Assay, MDA-MB-231; type: cell-based; conditions: MDA-MB-231 cells, 4 days
Experimental: as §1

SMILES	IC50 (MOLM13) [nM]	IC50 (MDA-MB-231)	IC50 (MOLM13; Homo sapiens, MOLM-13, 96 h) [nM]	IC50 (MDA-MB-231; Homo sapiens, MDA-MB-231, 96 h) [nM]
Cc1c(C#Cc2cnn(CC(=O)OCC#Cc3cccc4c3CN(C3CCC(=O)NC3=O)C4=O)c2)sc2c1C(c1ccc(Cl)cc1)=N[C@@H](C)c1nnc(C)n1-2 (stereo partly drawn) [compound 3, 3-(2-(2,6-dioxopiperidin-3-yl)-1-oxoisoindolin-4-yl)prop-2-yn-1-yl 2-(4-(((S)-4-(4-chlorophenyl)-3,6,9-trimethyl-6H-thieno[3,2-f][1,2,4]triazolo[4,3-a][1,4]diazepin-2-yl)ethynyl)-1H-pyrazol-1-yl)acetate]	1.8	2.1 nM	–	–
Cc1c(C#Cc2cnn(CCCC(=O)OCCCN3CCC(Nc4cccc5c4CN(C4CCC(=O)NC4=O)C5=O)CC3)c2)sc2c1C(c1ccc(Cl)cc1)=N[C@@H](CC(=O)N1CCN(C)CC1)c1nnc(C)n1-2 (stereo partly drawn) [Cpd. No. 1, 3-(4-((2-(2,6-dioxopiperidin-3-yl)-1-oxoisoindolin-4-yl)amino)piperidin-1-yl)propyl 4-(4-(((S)-4-(4-chlorophenyl)-3,9-dimethyl-6-(2-(4-methylpiperazin-1-yl)-2-oxoethyl)-6H-thieno[3,2-f][1,2,4]triazolo[4,3-a][1,4]diazepin-2-yl)ethynyl)-1H-pyrazol-1-yl)butanoate]	–	–	1.1	2.5
Cc1nnc2n1-c1sc(C#Cc3ccn(CCC(=O)OCCCNc4cccc5c4CN(C4CCC(=O)NC4=O)C5=O)n3)c(Cc3ccccc3)c1COC2 (stereo not shown) [compound 30, 3-((2-(2,6-dioxopiperidin-3-yl)-1-oxoisoindolin-4-yl)amino)propyl 3-(3-((3-benzyl-9-methyl-4H,6H-thieno[2,3-e][1,2,4]triazolo[3,4-c][1,4]oxazepin-2-yl)ethynyl)-1H-pyrazol-1-yl)propanoate]	–	–	0.6	148
Cc1nnc2n1-c1sc(C#Cc3cnn(CCCOC(=O)CCc4cccc5c4CN(C4CCC(=O)NC4=O)C5=O)c3)c(Cc3ccccc3)c1COC2 (stereo not shown) [compound 17, 3-(4-((3-benzyl-9-methyl-4H,6H-thieno[2,3-e][1,2,4]triazolo[3,4-c][1,4]oxazepin-2-yl)ethynyl)-1H-pyrazol-1-yl)propyl 3-(2-(2,6-dioxopiperidin-3-yl)-1-oxoisoindolin-4-yl)propanoate]	–	–	1.8	39
Cc1nnc2n1-c1sc(C#Cc3ccc(CCCC(=O)OCCN4CCN(c5cccc6c5C(=O)N(C5CCC(=O)NC5=O)C6=O)CC4)nc3)c(Cc3ccccc3)c1COC2 (stereo not shown) [compound 43, 2-(4-(2-(2,6-dioxopiperidin-3-yl)-1,3-dioxoisoindolin-4-yl)piperazin-1-yl)ethyl 4-(5-((3-benzyl-9-methyl-4H,6H-thieno[2,3-e][1,2,4]triazolo[3,4-c][1,4]oxazepin-2-yl)ethynyl)pyridin-2-yl)butanoate]	–	–	> 100	> 100
Cc1nnc2n1-c1sc(C#Cc3cnn(CC(=O)OCCCc4cccc5c4CN(C4CCC(=O)NC4=O)C5=O)c3)c(Cc3ccccc3)c1COC2 (stereo not shown) [compound 38, 3-(2-(2,6-dioxopiperidin-3-yl)-1-oxoisoindolin-4-yl)propyl 2-(4-((3-benzyl-9-methyl-4H,6H-thieno[2,3-e][1,2,4]triazolo[3,4-c][1,4]oxazepin-2-yl)ethynyl)-1H-pyrazol-1-yl)acetate]	–	–	22	> 100
Cc1c(C#Cc2cnn(CCCC(=O)OCCN3CCC(Nc4cccc5c4CN(C4CCC(=O)NC4=O)C5=O)CC3)c2)sc2c1C(c1ccc(Cl)cc1)=N[C@@H](CC(=O)N1CCN(C)CC1)c1nnc(C)n1-2 (stereo partly drawn) [compound 12, 2-(4-((2-(2,6-dioxopiperidin-3-yl)-1-oxoisoindolin-4-yl)amino)piperidin-1-yl)ethyl 4-(4-(((S)-4-(4-chlorophenyl)-3,9-dimethyl-6-(2-(4-methylpiperazin-1-yl)-2-oxoethyl)-6H-thieno[3,2-f][1,2,4]triazolo[4,3-a][1,4]diazepin-2-yl)ethynyl)-1H-pyrazol-1-yl)butanoate]	–	–	0.05	0.08
Cc1nnc2n1-c1sc(C#Cc3cnn(CCCC(=O)OCC#Cc4cccc5c4CN(C4CCC(=O)NC4=O)C5=O)c3)c(Cc3ccccc3)c1COC2 (stereo not shown) [compound 41, 3-(2-(2,6-dioxopiperidin-3-yl)-1-oxoisoindolin-4-yl)prop-2-yn-1-yl 4-(4-((3-benzyl-9-methyl-4H,6H-thieno[2,3-e][1,2,4]triazolo[3,4-c][1,4]oxazepin-2-yl)ethynyl)-1H-pyrazol-1-yl)butanoate]	–	–	3.8	1.2
Cc1c(C#Cc2cnn(CCCC(=O)OCCCOCCN3CCC(Nc4cccc5c4CN(C4CCC(=O)NC4=O)C5=O)CC3)c2)sc2c1C(c1ccc(Cl)cc1)=N[C@@H](CC(=O)N1CCN(C)CC1)c1nnc(C)n1-2 (stereo partly drawn) [compound 7, 3-(2-(4-((2-(2,6-dioxopiperidin-3-yl)-1-oxoisoindolin-4-yl)amino)piperidin-1-yl)ethoxy)propyl 4-(4-(((S)-4-(4-chlorophenyl)-3,9-dimethyl-6-(2-(4-methylpiperazin-1-yl)-2-oxoethyl)-6H-thieno[3,2-f][1,2,4]triazolo[4,3-a][1,4]diazepin-2-yl)ethynyl)-1H-pyrazol-1-yl)butanoate]	–	–	9.6	4.5
Cc1nnc2n1-c1sc(C#Cc3ccc(CCCC(=O)OCCN4CCC(Nc5cccc6c5CN(C5CCC(=O)NC5=O)C6=O)CC4)nc3)c(Cc3ccccc3)c1COC2 (stereo not shown) [compound 42, 2-(4-((2-(2,6-dioxopiperidin-3-yl)-1-oxoisoindolin-4-yl)amino)piperidin-1-yl)ethyl 4-(5-((3-benzyl-9-methyl-4H,6H-thieno[2,3-e][1,2,4]triazolo[3,4-c][1,4]oxazepin-2-yl)ethynyl)pyridin-2-yl)butanoate]	–	–	5.5	4.9
Cc1nnc2n1-c1sc(C#Cc3cnn(CCCC(=O)OCOCCCOc4cccc5c4CN(C4CCC(=O)NC4=O)C5=O)c3)c(Cc3ccccc3)c1COC2 (stereo not shown) [compound 23, (3-((2-(2,6-dioxopiperidin-3-yl)-1-oxoisoindolin-4-yl)oxy)propoxy)methyl 4-(4-((3-benzyl-9-methyl-4H,6H-thieno[2,3-e][1,2,4]triazolo[3,4-c][1,4]oxazepin-2-yl)ethynyl)-1H-pyrazol-1-yl)butanoate]	–	–	2.1	77.9
Cc1nnc2n1-c1sc(C#Cc3cnn(CCOC(=O)CCC#Cc4cccc5c4CN(C4CCC(=O)NC4=O)C5=O)c3)c(Cc3ccccc3)c1COC2 (stereo not shown) [compound 33, 2-(4-((3-benzyl-9-methyl-4H,6H-thieno[2,3-e][1,2,4]triazolo[3,4-c][1,4]oxazepin-2-yl)ethynyl)-1H-pyrazol-1-yl)ethyl 5-(2-(2,6-dioxopiperidin-3-yl)-1-oxoisoindolin-4-yl)pent-4-ynoate]	1.6	35.6 nM	–	–
Cc1c(C#Cc2cnn(CCCC(=O)OCCCOCCN3CCC(Nc4cccc5c4CN(C4CCC(=O)NC4=O)C5=O)CC3)c2)sc2c1C(c1ccc(Cl)cc1)=N[C@@H](C)c1nnc(C)n1-2 (stereo partly drawn) [compound 8, 3-(2-(4-((2-(2,6-dioxopiperidin-3-yl)-1-oxoisoindolin-4-yl)amino)piperidin-1-yl)ethoxy)propyl 4-(4-(((S)-4-(4-chlorophenyl)-3,6,9-trimethyl-6H-thieno[3,2-f][1,2,4]triazolo[4,3-a][1,4]diazepin-2-yl)ethynyl)-1H-pyrazol-1-yl)butanoate]	–	–	1.1	1.3
Cc1nnc2n1-c1sc(C#Cc3cnn(CCCC(=O)OCCN4CCN(c5cccc6c5C(=O)N(C5CCC(=O)NC5=O)C6=O)CC4)c3)c(Cc3ccccc3)c1COC2 (stereo not shown) [compound 44, 2-(4-(2-(2,6-dioxopiperidin-3-yl)-1,3-dioxoisoindolin-4-yl)piperazin-1-yl)ethyl 4-(4-((3-benzyl-9-methyl-4H,6H-thieno[2,3-e][1,2,4]triazolo[3,4-c][1,4]oxazepin-2-yl)ethynyl)-1H-pyrazol-1-yl)butanoate]	–	–	4.3	> 100
Cc1c(C#Cc2cnn(CCCC(=O)OCCOCCOCCOCC#Cc3cccc4c3CN(C3CCC(=O)NC3=O)C4=O)c2)sc2c1C(c1ccc(Cl)cc1)=N[C@@H](CC(=O)N1CCN(C)CC1)c1nnc(C)n1-2 (stereo partly drawn) [compound 6, 2-(2-(2-((3-(2-(2,6-dioxopiperidin-3-yl)-1-oxoisoindolin-4-yl)prop-2-yn-1-yl)oxy)ethoxy)ethoxy)ethyl 4-(4-(((S)-4-(4-chlorophenyl)-3,9-dimethyl-6-(2-(4-methylpiperazin-1-yl)-2-oxoethyl)-6H-thieno[3,2-f][1,2,4]triazolo[4,3-a][1,4]diazepin-2-yl)ethynyl)-1H-pyrazol-1-yl)butanoate]	–	–	2.8	32
Cc1nnc2n1-c1sc(C#Cc3cnn(CCOC(=O)CCC#Cc4cccc5c4CN(C4CCC(=O)NC4=O)C5=O)c3)c(Cc3ccccc3)c1COC2 (stereo not shown) [compound 31, 2-(4-((3-benzyl-9-methyl-4H,6H-thieno[2,3-e][1,2,4]triazolo[3,4-c][1,4]oxazepin-2-yl)ethynyl)-1H-pyrazol-1-yl)ethyl 5-(2-(2,6-dioxopiperidin-3-yl)-1-oxoisoindolin-4-yl)pent-4-ynoate]	–	9.1 nM and 5.6 nM	1.3	–
Cc1nnc2n1-c1sc(C#Cc3cnn(CC(=O)OCCCCc4cccc5c4CN(C4CCC(=O)NC4=O)C5=O)c3)c(Cc3ccccc3)c1COC2 (stereo not shown) [compound 34, 4-(2-(2,6-dioxopiperidin-3-yl)-1-oxoisoindolin-4-yl)butyl 2-(4-((3-benzyl-9-methyl-4H,6H-thieno[2,3-e][1,2,4]triazolo[3,4-c][1,4]oxazepin-2-yl)ethynyl)-1H-pyrazol-1-yl)acetate]	–	–	0.7	8.4
